Data on one compound can be found in paper PMC5908784, “Extracellular loops 2 and 3 of the calcitonin receptor selectively modify agonist binding and efficacy” (Biochemical Pharmacology, 2018).

Positions count from the first letter of the chain named. Where a SMILES comes first, the peptide text is derived from it. Bridges are numbered along the chain shown (N, C = ends).

What all share (test): Heterologous whole cell competition binding
Common to all, as to conditions: heterologous competition of 125I-sCT(8-32), whole cells, mean ± S.E.M., SEM

The target of one test is T1, hCTR Y374A (Homo sapiens, UniProt P30988, Y374A).
T1 construct: c-Myc (N); expressed in transfected cells
T1 sequence (P30988 25-474 Y374A): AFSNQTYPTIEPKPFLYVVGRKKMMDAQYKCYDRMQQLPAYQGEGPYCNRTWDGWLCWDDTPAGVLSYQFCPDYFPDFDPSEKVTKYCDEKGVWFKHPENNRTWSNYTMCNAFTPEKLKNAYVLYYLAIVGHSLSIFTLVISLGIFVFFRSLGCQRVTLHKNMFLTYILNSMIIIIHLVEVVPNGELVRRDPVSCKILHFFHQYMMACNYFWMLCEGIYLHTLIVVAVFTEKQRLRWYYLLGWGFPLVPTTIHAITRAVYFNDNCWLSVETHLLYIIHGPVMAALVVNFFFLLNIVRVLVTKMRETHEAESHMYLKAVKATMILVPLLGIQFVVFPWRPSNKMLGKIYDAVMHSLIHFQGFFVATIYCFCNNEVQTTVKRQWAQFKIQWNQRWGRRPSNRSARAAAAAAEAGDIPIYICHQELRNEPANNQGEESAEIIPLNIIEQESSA
Summed up:
(§1)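 Intact cells carrying the mutant calcitonin receptor are co-incubated overnight with labelled tracer and unlabelled competitor. Non-bound ligand is then washed away and retained radioactivity measured by gamma counting; competition data are converted to pKi using Cheng-Prusoff.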

Another test addresses T2, hCTR L298A (Homo sapiens, UniProt P30988, L298A).
T2 construct: c-Myc (N); expressed in transfected cells
T2 sequence (P30988 25-474 L298A): T1 sequence (P30988 25-474 Y374A) with L274A, A350Y
The procedure, abridged:
as §1

The next test addresses T3, hCTR T280A (Homo sapiens, UniProt P30988, T280A).
T3 construct: expressed in transfected cells
T3 sequence (P30988 25-474 T280A): T1 sequence (P30988 25-474 Y374A) with T256A, A350Y
The procedure, abridged: as §1

Another test deals with T4, hCTR P363A (Homo sapiens, UniProt P30988, P363A).
T4 construct: expressed in transfected cells
T4 sequence (P30988 25-474 P363A): T1 sequence (P30988 25-474 Y374A) with P339A, A350Y
Summed up:
as §1

The next test deals with T5, hCTR F356A (Homo sapiens, UniProt P30988, F356A).
T5 construct: c-Myc (N); expressed in transfected cells
T5 sequence (P30988 25-474 F356A): T1 sequence (P30988 25-474 Y374A) with F332A, A350Y
Summed up: as §1

Regarding `CSCC[C@H](NC(=O)CNC(=O)[C@H](CO)NC(=O)[C@H](Cc1ccccc1)NC(=O)[C@H](CCCNC(=N)N)NC(=O)[C@H](Cc1c[nH]cn1)NC(=O)[C@H](Cc1ccccc1)NC(=O)[C@H](CC(N)=O)NC(=O)[C@H](CC(N)=O)NC(=O)[C@H](CC(C)C)NC(=O)[C@H](CC(N)=O)NC(=O)[C@H](CCCNC(=N)N)NC(=O)[C@H](Cc1c[nH]c2ccccc12)NC(=O)[C@H](Cc1ccc(O)cc1)NC(=O)[C@H](C)NC(=O)[C@H](CO)NC(=O)[C@H](CC(C)C)NC(=O)[C@@H](NC(=O)[C@@H]1CSSC[C@H](N)C(=O)N[C@@H](CO)C(=O)N[C@@H](CC(N)=O)C(=O)N[C@@H](CC(C)C)C(=O)N[C@@H](CO)C(=O)N[C@@H]([C@@H](C)O)C(=O)N1)C(C)C)C(=O)NCC(=O)N[C@@H](Cc1ccccc1)C(=O)NCC(=O)N1CCC[C@H]1C(=O)N[C@@H](CCC(=O)O)C(=O)N[C@H](C(=O)N1CCC[C@H]1C(N)=O)[C@@H](C)O` [pCT] (H-CSNLSTCVLSAYWRNLNNFHRFSGMGFGPETP-NH2; disulfide 1-7), the Ki on hCTR Y374A is 5.89 nM; at hCTR L298A it was 20.4 nM; on hCTR T280A, 6.31 nM; on hCTR P363A, 55 nM; at hCTR F356A it was 12 nM.

For orientation: Ki means the dissociation constant of the complex between target and ligand, obtained from inhibition or displacement.
